One molecule from patent US11739122B2, “Glycopeptide antibiotic compounds, methods for producing the same, and uses thereof” (Academia Sinica, priority 2019, dated 2023) can be followed below.

The test system of data set [1] is A. baumannii ATCC 19606. As to the kind of experiment: Inner membrane permeabilization, propidium iodide (PI). Type of data set: cell-based, Acinetobacter baumannii. Particulars: AB. How it is done:
Membrane Permeabilization Assay
The inner membrane and outer membrane permeabilization was determined by propidium iodide (PI) and 1-N-Phenylnaphthylamine (NPN), respectively. MRSA (ATCC 700787) and A. baumannii (ATCC 19606) at mid-log phase were harvested, washed and resuspended in a solution containing 5 mM glucose and 5 mM HEPES at pH 7.2. For the inner membrane permeabilization, 150 μL cell suspension and 50 μL PI (10 μM) were added together and preincubated for 30 minutes or 60 minutes for MRSA or A. baumannii, respectively. For outer membrane permeabilization activity, 150 μL cell suspension and 50 μL NPN (10 μM) were added together and preincubated for 60 minutes. The change of fluorescence intensity was recorded for 8 minutes at 2 minute intervals with excitation and emission wavelength set at 535 nm and 617 nm, respectively for PI and with excitation and emission wavelength set at 350 nm of 420 nm, respectively, for NPN. When 5 μL of a given test compound was added in the solution, the fluorescence intensity was recorded for another 12 minutes.

In the next data set the test system is MRSA ATCC 700787. As to the kind of experiment: Thin-section TEM, cell wall morphology. Type of data set: cell-based, Staphylococcus aureus. Here is the method:
(§1) Thin-Section Transmission Electron Microscopy (TEM)
(§2) An overnight cultured MRSA ATCC 700787, VRE ATCC 700221 or A. baumannii ATCC 19606 was individually sub-cultured into a fresh medium. Bacteria at the exponential phase were treated with a given test compound at a concentration of 4×MIC for 1-4 hour at 37° C. and followed by wash and resuspension in PBS. Bacteria cells for the TEM analysis were prepared as follows: Cells were fixed with 2.5% glutaraldehyde for 30 minutes. After the fixation, cells were washed twice with PBS and fixed with 1% osmium tetraoxide for another 30 minutes. All the buffer was removed with distilled water. The cells were then stained with 1% uranyl acetate and dehydrated with a graded ethanol solution. Cells were embedded in resin. Finally, each sample was cut into thin slices of approximately 90 nm with a glass knife and stained with uranyl acetate. The images of bacterial morphological were recorded.
The cell wall/membrane apparently is the targets, while the extent of damage depends on what compound imposes on the strain. […] Cell wall thickening has been a common phenotype in clinical MRSA isolates, which may well be a phenotypic determinant for VRSA. The systemic cell-wall damage may account for the cell-wall biosynthesis crippled all over the cell surface in cell-wall thickening strains, thus leading cells to lysis as a result of the osmotic pressure of cytoplasm.

For data set [2], the system named is VRE ATCC 700221 (vanA type). Briefly: Thin-section TEM, cell wall morphology. The conditions noted are these: VRE ATCC700221, vanA type. Type of data set: cell-based, enterococci. How it is done:
as §1, §2
The cell wall was almost intact but interspersed with holes, where cell fluids outflew leading cells to death. In general, VRE was immune to compound 1 or 2 (>256 μgmL^−1), median sensitive to compound 14 (32 μgmL^−1), but highly sensitive to compound 28 (4 μgmL^−1). […]

A further data set has as its system VRE ATCC 700425 (vanC). As to the kind of experiment: MIC, broth microdilution. The conditions noted are these: VRE ATCC 700425 (vanC). Type of data set: cell-based, enterococci. In short, it runs like this:
(§3)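 Broth microdilution; inocula were prepared from 18–24 h agar colonies to a 0.5 McFarland standard and adjusted to about 1×10^8 CFU/mL. Plates were incubated at 37 °C for 18–24 h. The MIC was the lowest compound concentration showing no visible growth.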
For orientation: In broth dilution the organism is exposed to a series of concentrations in liquid medium.

For a further data set, the system named is HEK293T cells. As to the kind of experiment: Alamar Blue cell viability assay. Type of data set: cell-based, human. The conditions noted are these: up to 100 μgmL^−1; 2 and 24 h. In general terms: Resazurin is reduced to fluorescent resorufin, in cell work by metabolically active cells.
Data set [3] concerns A. baumannii ATCC 19606. Briefly: MIC, broth microdilution. It counts as cell-based, Acinetobacter baumannii. In short, it runs like this: as §3
For another data set, the system named is MRSA ATCC 700787 VRSA. Briefly: MIC, broth microdilution. Type of data set: cell-based, Staphylococcus aureus. In short, it runs like this:
as §3

Another data set concerns S. aureus ATCC 29213. As to the kind of experiment: MIC, broth microdilution. Particulars: SA ATCC 29213. It counts as cell-based, Staphylococcus aureus. In short, it runs like this:
as §3

For a further data set, the system named is MRSA ATCC 43300. Briefly: MIC, broth microdilution. It counts as cell-based, Staphylococcus aureus. Particulars: MRSA ATCC 43300. Summed up:
as §3

For the next data set, the system named is MRSA ATCC BAA-38. Briefly: MIC, broth microdilution. Type of data set: cell-based, Staphylococcus aureus. The conditions noted are these: MRSA ATCC BAA-38. Summed up:
as §3

In the next data set the test system is MRSA ATCC BAA-44. As to the kind of experiment: MIC, broth microdilution. It counts as cell-based, Staphylococcus aureus. Particulars: MRSA ATCC BAA-44. Summed up: as §3
The test system of the next data set is MRSA ATCC 700789 VRSA. As to the kind of experiment: MIC, broth microdilution. It counts as cell-based, Staphylococcus aureus. Particulars: MRSA ATCC 700789 VRSA. In short, it runs like this:
as §3

The next data set has as its system MRSA ATCC BAA-39. As to the kind of experiment: MIC, broth microdilution. Particulars: MRSA ATCC BAA-39. It counts as cell-based, Staphylococcus aureus. In short, it runs like this: as §3
For a further data set, the system named is MRSA ATCC 700698 hVISA. As to the kind of experiment: MIC, broth microdilution. Type of data set: cell-based, Staphylococcus aureus. Particulars: MRSA ATCC 700698 hVISA. Summed up: as §3
Another data set concerns E. faecalis ATCC 29302. As to the kind of experiment: MIC, broth microdilution. Type of data set: cell-based. Particulars: EF ATCC 29302. In short, it runs like this:
as §3

SMILES strings stand for the structures. ≈ marks a conversion by molar mass, not a printed value.

The MIC is the smallest concentration in the dilution series that meets the test's criterion for growth inhibition. On to `CCCCCCCC(=O)N[C@H]1[C@H](O[C@@H]2c3ccc(c(Cl)c3)Oc3cc4cc(c3O)Oc3ccc(cc3Cl)C[C@H]3NC(=O)[C@H](N)c5ccc(O)c(c5)Oc5cc(O)cc(c5)[C@H](NC3=O)C(=O)N[C@H]4C(=O)N[C@H]3C(=O)N[C@@H]2C(=O)N[C@H](C(=O)O)c2cc(O)cc(O)c2-c2cc3ccc2O)O[C@H](CO)[C@@H](O)[C@@H]1O` [Compound 14, r6,N-octyl-Glc Tei], for which the “inner (cytoplasmic) membrane permeabilization, PI” value in the data set on A. baumannii ATCC 19606 [1] is recorded as “no activity”. Moreover, in the data set on MRSA ATCC 700787, the “cell wall morphology by TEM” value was “cell wall damage toward full cell lysis”. Moreover, in data set [2], the “sensitivity of VRE to compound (concentration)” value was 32 µg/mL. Moreover, the MIC is 1 µg/mL (≈ 0.673 µM) with VRE ATCC 700425 (vanC); 50 µM in the data set with A. baumannii ATCC 19606 [3] (A. baumannii ATCC 19606, Table 3, first figure of cell); 74.22 µg/mL in the data set with A. baumannii ATCC 19606 [3] (A. baumannii ATCC 19606, Table 3, second figure of cell); 74.22 µg/mL in the data set on A. baumannii ATCC 19606 [3] (AB ATCC 19606, Table 4); 0.016 µg/mL (≈ 0.0108 µM) against MRSA ATCC 700787 VRSA (MRSA ATCC 700787, Table 4); 0.016 µg/mL (≈ 0.0108 µM) in the data set with MRSA ATCC 700787 VRSA (MRSA ATCC 700787 VRSA). Also, the MIC in the data set with S. aureus ATCC 29213 is 0.016 µg/mL (≈ 0.0108 µM); against MRSA ATCC 43300, 0.063 µg/mL (≈ 0.0424 µM); in the data set on MRSA ATCC BAA-38 it was 0.016 µg/mL (≈ 0.0108 µM); against MRSA ATCC BAA-44, 0.016 µg/mL (≈ 0.0108 µM); against MRSA ATCC 700789 VRSA, 0.5 µg/mL (≈ 0.336 µM); against MRSA ATCC BAA-39, 0.016 µg/mL (≈ 0.0108 µM). For the same molecule, the values for the MIC against MRSA ATCC 700698 hVISA and with E. faecalis ATCC 29302 were 0.016 µg/mL (≈ 0.0108 µM) and 0.25 µg/mL (≈ 0.168 µM), respectively. In addition, in the data set on HEK293T cells, the “cytotoxicity to HEK293T cells” value is “did not exhibit any observable toxicity”.
